The text below walks through data of patent US9040479B2, “HCV NS3 protease inhibitors” (RFS Pharma, LLC, priority 2012, dated 2015).

Several values for one entry are separate records, joined by “and”; a condition that tells them apart may be missing. Identical values can stand only once. Where only a bound is given, the exact number is not on record here.

The test system of one series is HepG2 cells. The following applies: HepG2 cells incubated with 10 μM; cited from earlier work.
Series [1] deals with HCV replicon RNA in Huh 7 Clone B cells. The experiment in a line: HCV replicon assay (replicon RNA by real time RT-PCR). The format is cell-based. The note with it: for HCV Ct: single replicates. On the procedure:
(§1) Following five days incubation (37° C., 5% CO2), total cellular RNA was isolated by using versaGene RNA purification kit from Gentra. Replicon RNA and an internal control (TaqMan rRNA control reagents, Applied Biosystems) were amplified in a single step multiplex Real Time RT-PCR Assay. The antiviral effectiveness of the compounds was calculated by subtracting the threshold RT-PCR cycle of the test compound from the threshold RT-PCR cycle of the no-drug control (ΔCt HCV). A ΔCt of 3.3 equals a 1-log reduction (equal to 90% less starting material) in Replicon RNA levels. The cytotoxicity of the compounds was also calculated by using the ΔCt rRNA values. (2′-Me-C) was used as the control. To determine EC90 and IC50 values^2, ΔCt: values were first converted into fraction of starting material^3 and then were used to calculate the % inhibition. […]

Series [2] is described as follows: HCV replicon assay, cytotoxicity from rRNA Ct values. The series is classed as cell-based. The following applies: human, Huh 7 Clone B cells containing HCV replicon RNA; from rRNA, Huh 7 Clone B cells. The procedure: as §1
For orientation: A replicon is a self-replicating genome or part of one, used to study replication in cells.

Series [3] relates to Huh 7 Clone B cells (rRNA). Described as above. The series is classed as cell-based. The note with it: for rRNA Ct: single replicates. The procedure:
as §1

Series [4] can be described thus: Cytotoxicity assay in PBM cells. The format is cell-based. The following applies: human, figure in parentheses not defined. On the procedure:
(§2) The toxicity of the compounds was assessed in Vero, human PBM, CEM (human lymphoblastoid), MT-2, and HepG2 cells, as described previously (see Schinazi R. F., Sommadossi J.-P., Saalmann V., Cannon D. L., Xie M.-Y., Hart G. C., Smith G. A. & Hahn E. F. Antimicrob. Agents Chemother. 1990, 34, 1061-67). Cycloheximide was included as positive cytotoxic control, and untreated cells exposed to solvent were included as negative controls. The cytotoxicity IC50 was obtained from the concentration-response curve using the median effective method described previously (see Chou T.-C. & Talalay P. Adv. Enzyme Regul. 1984, 22, 27-55; Belen'kii M. S. & Schinazi R. F. Antiviral Res. 1994, 25, 1-11).

Series [5] in a line: Cytotoxicity assay in CEM cells. The series is classed as cell-based. The following applies: human, CEM (human lymphoblastoid) cells. On the procedure:
as §2

Series [6] in a line: Cytotoxicity assay in Vero cells. The note with it: African green monkey, figure in parentheses not defined. The format is cell-based. On the procedure: as §2
[7] abbreviates: Hepatitis C virus, Huh-7, 120 h, HCV replicon, five days incubation.

As to `O=c1[nH]c(=O)n([C@@H]2O[C@H](CO)[C@@H](O)[C@@H]2F)cc1I` [fialuridine, 1,2′-deoxy-2′-fluoro-1-D-arabinofuranosly-5-iodo-uracil], the “morphological changes in mitochondria (electron micrographs)” value in the series on HepG2 cells is recorded as “enlarged mitochondria with morphological changes consistent with mitochondrial dysfunction”.

Turning to `C=C[C@@H]1C[C@]1(NC(=O)[C@@H]1C[C@@H](OC(=O)N2Cc3cccc(F)c3C2)CN1C(=O)[C@@H](NC(=O)C(C)(C)C(F)(F)F)C(C)(C)C)C(=O)NS(=O)(=O)C1CC1` [drawing 12], in series [1] (3 nM), the “% Inhit (HCV)” value is −33.8%; the “DCt HCV” value is −0.4; the “HCV Ct Average” value turned out to be 22.8; the “HCV Ct” value was 22.6 (2×) and 23.2. In series [1] (10 nM), the “% Inhit (HCV)” value is 91.7%; the “DCt HCV” value amounted to 3.6; the “HCV Ct Average” value is 26.8; the “HCV Ct” value was 27.0 and 26.9 and 26.6. Moreover, in series [1] (33 nM), the “% Inhit (HCV)” value is given as 98.0%; the “DCt HCV” value is given as 5.7; the “HCV Ct Average” value was found to be 28.9; the “HCV Ct” value was 29.2 and 29.1 and 28.4. Also, in series [1] (100 nM), the “% Inhit (HCV)” value is on record as 99.4%; the “DCt HCV” value came to 7.3; the “HCV Ct Average” value is 30.5; the “HCV Ct” value was 30.3 and 30.5 and 30.8. In series [1] (setting [7]), this compound showed an EC50 of 7.7 nM and an EC90 of 9.9 nM. This compound displayed a CC50 at 5 days in series [2] of over 100 nM. Also, in series [3] (3 nM), the “DCt rRNA” value is given as −0.8; the “rRNA Ct Average” value was found to be 19.2; the “rRNA Ct” value is 19.2 and 19.3 and 18.9. Besides, in series [3] (10 nM), the “DCt rRNA” value is −0.9; the “rRNA Ct Average” value was 19.0; the “rRNA Ct” value is 19.2 and 18.9 and 19.0. Also, in series [3] (33 nM), the “DCt rRNA” value is on record as −0.8; the “rRNA Ct Average” value is listed as 19.1; the “rRNA Ct” value is 19.2 (2×) and 19.1. In addition, in series [3] (100 nM), the “DCt rRNA” value was −1.0; the “rRNA Ct Average” value turned out to be 19.0; the “rRNA Ct” value was 19.0 and 18.8 and 19.2. For the same compound, the inhibition at 0.003 µM in series [3] (Homo sapiens, Huh-7, 3 nM, read-out: % inhib. rRNA) is -74.8%. For the same compound, in series [3] (Homo sapiens, Huh-7, 10 nM, read-out: % inhib. rRNA), the inhibition at 0.01 µM is -89.1%. Besides, the inhibition at 0.033 µM in series [3] (Homo sapiens, Huh-7, 33 nM, read-out: % inhib. rRNA) was -75.6%. In addition, the inhibition at 0.1 µM in series [3] (Homo sapiens, Huh-7, 100 nM, read-out: % inhib. rRNA) is -95.2%.

On to `C=C[C@@H]1C[C@]1(NC(=O)[C@@H]1C[C@@H](OC(=O)N2Cc3cccc(F)c3C2)CN1C(=O)[C@@H](NC(=O)C(C)(C)C(F)(F)F)C(C)(C)C)C(=O)NS(=O)(=O)C1CC1` [drawing 11], for which the IC50 is over 100 µM in series [4], 85.1 µM in series [5] and at least 100 µM in series [6].

What is called EC50 is the midpoint of the concentration-response curve. High values mean a less potent agent, low ones a more potent agent. What is called EC90 is the concentration needed for an effect of 90%. Broadly, the CC50 is the concentration giving 50% cytotoxicity. A higher CC50 goes with better tolerance by the cells. For orientation: IC50 means the concentration that inhibits the measured activity by half.
